The target of assay [1] is P300 (Homo sapiens, UniProt Q09472). The assay can be described thus: Immunoblotting of P300 protein levels in LNCaP or 22RV1 cells. It is filed as cell-based. Further details: LNCaP or 22RV1 cells that express CBP/P300 proteins were treated with GNE-781 or the bivalent compounds; endogenous in cells; host or cells: LNCaP (clone FGC) or 22RV1 cells. Conditions: read-out: Degradation (10 nM). Here is the method: Specific exemplary bivalent compounds were characterized in LNCaP or 22RV1 cells. LNCaP or 22RV1 cells that express CBP/P300 proteins were treated with GNE-781 or the bivalent compounds disclosed herein (P-001 to P-174) for indicated hours. Cells were collected, lysed and subject to immunoblotting using an antibody specific to P300 or CBP proteins. Tubulin or vinculin was included as the loading control. DMSO was used as the negative control.
Sequence of P300 (Q09472 whole entry): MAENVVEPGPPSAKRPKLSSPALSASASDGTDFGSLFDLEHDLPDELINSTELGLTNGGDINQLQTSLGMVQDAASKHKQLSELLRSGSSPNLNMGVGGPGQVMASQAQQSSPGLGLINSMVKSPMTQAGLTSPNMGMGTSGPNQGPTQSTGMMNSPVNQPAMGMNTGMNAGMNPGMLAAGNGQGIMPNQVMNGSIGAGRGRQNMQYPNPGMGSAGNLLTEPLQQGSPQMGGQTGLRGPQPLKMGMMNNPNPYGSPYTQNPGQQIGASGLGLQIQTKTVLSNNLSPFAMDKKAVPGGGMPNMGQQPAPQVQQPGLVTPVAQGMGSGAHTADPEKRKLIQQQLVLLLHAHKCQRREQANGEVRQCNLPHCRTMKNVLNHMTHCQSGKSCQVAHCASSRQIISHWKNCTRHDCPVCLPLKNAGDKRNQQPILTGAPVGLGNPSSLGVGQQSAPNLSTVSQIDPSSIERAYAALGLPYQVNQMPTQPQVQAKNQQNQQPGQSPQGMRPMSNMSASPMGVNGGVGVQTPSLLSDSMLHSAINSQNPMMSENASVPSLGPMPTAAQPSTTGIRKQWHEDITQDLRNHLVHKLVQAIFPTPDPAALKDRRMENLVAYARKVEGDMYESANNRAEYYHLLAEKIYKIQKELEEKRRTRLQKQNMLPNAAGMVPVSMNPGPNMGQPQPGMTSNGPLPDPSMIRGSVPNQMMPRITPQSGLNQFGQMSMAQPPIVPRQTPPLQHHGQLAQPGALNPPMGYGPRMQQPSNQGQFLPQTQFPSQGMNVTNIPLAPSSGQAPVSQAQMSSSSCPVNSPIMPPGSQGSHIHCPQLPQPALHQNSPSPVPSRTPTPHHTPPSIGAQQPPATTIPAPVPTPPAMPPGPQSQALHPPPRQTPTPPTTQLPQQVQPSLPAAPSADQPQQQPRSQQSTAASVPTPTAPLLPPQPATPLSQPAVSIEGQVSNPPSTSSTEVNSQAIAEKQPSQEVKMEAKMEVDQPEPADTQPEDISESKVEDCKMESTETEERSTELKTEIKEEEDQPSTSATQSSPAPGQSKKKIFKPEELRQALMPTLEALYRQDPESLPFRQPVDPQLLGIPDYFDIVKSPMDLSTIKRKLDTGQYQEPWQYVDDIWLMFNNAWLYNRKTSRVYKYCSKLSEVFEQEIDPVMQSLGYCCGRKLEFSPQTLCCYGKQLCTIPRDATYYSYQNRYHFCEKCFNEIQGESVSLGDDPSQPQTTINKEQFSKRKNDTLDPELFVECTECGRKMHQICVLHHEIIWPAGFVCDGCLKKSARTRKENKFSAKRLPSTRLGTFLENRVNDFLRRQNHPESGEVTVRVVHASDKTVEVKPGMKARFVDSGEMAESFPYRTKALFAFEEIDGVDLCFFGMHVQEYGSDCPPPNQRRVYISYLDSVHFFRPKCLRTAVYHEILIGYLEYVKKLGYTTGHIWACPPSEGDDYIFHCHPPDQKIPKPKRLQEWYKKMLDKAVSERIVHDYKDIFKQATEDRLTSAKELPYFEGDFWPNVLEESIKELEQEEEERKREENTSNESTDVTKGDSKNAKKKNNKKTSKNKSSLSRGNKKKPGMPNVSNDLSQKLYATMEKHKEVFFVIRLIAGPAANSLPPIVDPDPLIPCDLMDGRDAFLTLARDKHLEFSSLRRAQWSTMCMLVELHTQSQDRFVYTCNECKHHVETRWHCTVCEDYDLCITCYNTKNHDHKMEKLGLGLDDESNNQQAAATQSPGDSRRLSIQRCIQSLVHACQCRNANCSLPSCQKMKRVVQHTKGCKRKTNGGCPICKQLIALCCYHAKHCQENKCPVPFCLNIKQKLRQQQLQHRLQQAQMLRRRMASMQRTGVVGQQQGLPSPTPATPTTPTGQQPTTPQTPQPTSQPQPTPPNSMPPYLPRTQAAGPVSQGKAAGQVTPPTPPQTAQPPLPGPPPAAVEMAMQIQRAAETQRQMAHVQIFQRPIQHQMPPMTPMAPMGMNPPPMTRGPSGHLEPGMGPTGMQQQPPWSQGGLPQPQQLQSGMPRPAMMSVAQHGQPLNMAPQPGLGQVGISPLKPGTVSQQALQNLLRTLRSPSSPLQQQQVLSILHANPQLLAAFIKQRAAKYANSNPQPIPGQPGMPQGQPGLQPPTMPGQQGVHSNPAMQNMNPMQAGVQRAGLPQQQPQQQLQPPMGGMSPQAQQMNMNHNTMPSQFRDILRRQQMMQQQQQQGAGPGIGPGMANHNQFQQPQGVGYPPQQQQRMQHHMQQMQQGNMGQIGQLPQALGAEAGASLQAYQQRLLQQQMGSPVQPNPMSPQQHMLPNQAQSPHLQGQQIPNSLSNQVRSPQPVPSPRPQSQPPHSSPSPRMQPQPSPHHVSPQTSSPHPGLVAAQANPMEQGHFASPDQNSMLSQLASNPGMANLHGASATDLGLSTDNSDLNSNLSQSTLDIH
Cultured cells or tissue chunks were washed with cold PBS once and lysed in cold RIPA buffer supplemented with protease inhibitors and phosphatase inhibitors (Beyotime Biotechnology). The solutions were then incubated at 4° C. for 30 minutes with gentle agitation to fully lyse cells. Cell lysates were centrifuged at 13,000 rpm for 10 minutes at 4° C. and pellets were discarded. Total protein concentrations in the lysates were determined by BCA assays (Beyotime Biotechnology). Cell lysates were mixed with Laemmli loading buffer to 1× and heated at 99° C. for 5 min. Proteins were resolved on SDS-PAGE and visualized by chemiluminescence. Images were taken by a ChemiDoc MP Imaging system (Bio-Rad). Protein bands were quantitated using the accompanied software provided by Bio-Rad.
In general terms: In western blotting, separated proteins are transferred to a membrane and probed.

Assay [2] concerns LNCaP cells. The experiment in a line: LNCaP cell viability assay (CellTiter-Glo). It is filed as cell-based. Conditions: Homo sapiens, 72 h, LNCaP prostate cancer cell viability inhibition, 3 days. The procedure, abridged:
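Three-day treatment of LNCaP cells (5000 per well) across a 12-point, 3-fold dilution series starting at 10 μM. ATP luminescence (CellTiter-Glo) relative to untreated controls gave dose-response curves fitted nonlinearly for IC50.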
A general note: ATP-based viability assays read luminescence as a measure of living cells.

Where [3] appears, read: percentage of inhibition of p300 at 10 nM (Table 2).
Where [4] appears, read: percentage of inhibition of p300 at 10 nM (Table 3).

Molecules are shown by their SMILES. Where two headings read alike, the source gives them in different places.

`CNC(=O)N1CCc2c(c(N3CCCc4cc(-c5cnn(CC(=O)NCCOCCOCCNc6ccc7c(c6)C(=O)N(C6CCC(=O)NC6=O)C7=O)c5)c(C(F)F)cc43)nn2C2CCOCC2)C1` (stereo not shown) [P-029]: the inhibition at 0.01 µM in assay [1] (setting [3]) was less than 20%. Further, the IC50 – broadly, the concentration that gives 50% inhibition – in assay [2] (CellTiter-Glo (Table 2)) was found to be 578 nM.

On to `CC(=O)N1CCc2c(c(N3CCCc4cc(-c5cnn(C)c5)c(C(F)F)cc43)nn2C2CCN(CCN3CCC(CNc4cccc5c4C(=O)N(C4CCC(=O)NC4=O)C5=O)CC3)CC2)C1` (stereo not shown) [P-143, 4-(((1-(2-(4-(5-acetyl-3-(7-(difluoromethyl)-6-(1-methyl-1H-pyrazol-4-yl)-3,4-dihydroquinolin-1(2H)-yl)-4,5,6,7-tetrahydro-1H-pyrazolo[4,3-c]pyridin-1-yl)piperidin-1-yl)ethyl)piperidin-4-yl)methyl)amino)-2-(2,6-dioxopiperidin-3-yl)isoindoline-1,3-dione], for which the inhibition at 0.01 µM in assay [1] is more than 80%. The molecule also had an IC50 in assay [2] (CellTiter-Glo (Table 3)) of 1.5 nM.

Turning to `CNC(=O)N1CCc2c(c(N3CCCc4cc(-c5cnn(C)c5)c(C(F)F)cc43)nn2C2CCN(C(=O)CCCCCCCCC(=O)N[C@H](C(=O)N3C[C@H](O)C[C@H]3C(=O)NCc3ccc(-c4scnc4C)cc3)C(C)(C)C)CC2)C1` [P-062, 3-(7-(Difluoromethyl)-6-(1-methyl-1H-pyrazol-4-yl)-3,4-dihydroquinolin-1(2H)-yl)-1-(1-(10-(((S)-1-((2S,4R)-4-hydroxy-2-((4-(4-methylthiazol-5-yl)benzyl)carbamoyl)pyrrolidin-1-yl)-3,3-dimethyl-1-oxobutan-2-yl)amino)-10-oxodecanoyl)piperidin-4-yl)-N-methyl-1,4,6,7-tetrahydro-5H-pyrazolo[4,3-c]pyridine-5-carboxamide], in assay [1] (setting [4]), the inhibition at 0.01 µM was 20 to 50%. This molecule returned an IC50 in assay [2] (CellTiter-Glo (Table 3)) of 35 nM.

For `CC(=O)N1CCc2c(c(N3CCCc4cc(-c5cnn(C)c5)c(C(F)F)cc43)nn2C2CCN(C(=O)CN3CCN(CCc4cccc5c4C(=O)N(C4CCC(=O)NC4=O)C5=O)CC3)CC2)C1` (stereo not shown) [P-169, 4-(2-(4-(2-(4-(5-Acetyl-3-(7-(difluoromethyl)-6-(1-methyl-1H-pyrazol-4-yl)-3,4-dihydroquinolin-1(2H)-yl)-4,5,6,7-tetrahydro-1H-pyrazolo[4,3-c]pyridin-1-yl)piperidin-1-yl)-2-oxoethyl)piperazin-1-yl)ethyl)-2-(2,6-dioxopiperidin-3-yl)isoindoline-1,3-dione], the inhibition at 0.01 µM in assay [1] (setting [4]) is less than 20%. The IC50 in assay [2] (CellTiter-Glo (Table 3)) was more than 500 nM.

As to `CNC(=O)N1CCc2c(c(N3CCCc4cc(-c5cnn(CC(=O)NCCOCCOCCNc6cccc7c6C(=O)N(C6CCC(=O)NC6=O)C7=O)c5)c(C(F)F)cc43)nn2C2CCOCC2)C1` (stereo not shown) [P-022, 3-(7-(Difluoromethyl)-6-(1-(2-((2-(2-(2-((2-(2,6-dioxopiperidin-3-yl)-1,3-dioxoisoindolin-4-yl)amino)ethoxy)ethoxy)ethyl)amino)-2-oxoethyl)-1H-pyrazol-4-yl)-3,4-dihydroquinolin-1(2H)-yl)-N-methyl-1-(tetrahydro-2H-pyran-4-yl)-1,4,6,7-tetrahydro-5H-pyrazolo[4,3-c]pyridine-5-carboxamide], in assay [1] (setting [3]), the inhibition at 0.01 µM was less than 20%. In addition, the IC50 in assay [2] (CellTiter-Glo (Table 2)) came to 389 nM.

For `CNC(=O)N1CCc2c(c(N3CCCc4cc(-c5cnn(CC(=O)NCCCCCCNc6ccc7c(c6)C(=O)N(C6CCC(=O)NC6=O)C7=O)c5)c(C(F)F)cc43)nn2C2CCOCC2)C1` (stereo not shown) [P-020], the inhibition at 0.01 µM in assay [1] (setting [3]) was more than 80%. This molecule also came in with an IC50 in assay [2] (CellTiter-Glo (Table 2)) of 3.3 nM.

For the molecule `CC(=O)N1CCc2c(c(N3CCCc4cc(-c5cnn(C)c5)c(C(F)F)cc43)nn2C2CCN(C(=O)CCCCCCCn3c(=O)n(C4CCC(=O)NC4=O)c4ccccc43)CC2)C1` (stereo not shown) [P-135, 3-(3-(8-(4-(5-acetyl-3-(7-(difluoromethyl)-6-(1-methyl-1H-pyrazol-4-yl)-3,4-dihydroquinolin-1(2H)-yl)-4,5,6,7-tetrahydro-1H-pyrazolo[4,3-c]pyridin-1-yl)piperidin-1-yl)-8-oxooctyl)-2-oxo-2,3-dihydro-1H-benzo[d]imidazol-1-yl)piperidine-2,6-dione], in assay [1], the inhibition at 0.01 µM is more than 80%. This molecule displayed a 50% inhibitory concentration (IC50) in assay [2] (CellTiter-Glo (Table 3)) of 0.7 nM.

In the case of `CNC(=O)N1CCc2c(c(N3CCCc4cc(-c5cnn(CC(=O)NCCOCCOCCOCCOCCNc6cccc7c6C(=O)N(C6CCC(=O)NC6=O)C7=O)c5)c(C(F)F)cc43)nn2C2CCOCC2)C1` (stereo not shown) [P-024, 3-(7-(Difluoromethyl)-6-(1-(17-((2-(2,6-dioxopiperidin-3-yl)-1,3-dioxoisoindolin-4-yl)amino)-2-oxo-6,9,12,15-tetraoxa-3-azaheptadecyl)-1H-pyrazol-4-yl)-3,4-dihydroquinolin-1(2H)-yl)-N-methyl-1-(tetrahydro-2H-pyran-4-yl)-1,4,6,7-tetrahydro-5H-pyrazolo[4,3-c]pyridine-5-carboxamide], the inhibition at 0.01 µM in assay [1] (setting [3]) was less than 20%. This molecule also displayed an IC50 in assay [2] (CellTiter-Glo (Table 2)) of 524 nM.

As for `CNC(=O)N1CCc2c(c(N3CCCc4cc(-c5cnn(C)c5)c(C(F)F)cc43)nn2C2CCN(C(=O)CN3CCC(CNc4cccc5c4C(=O)N(C4CCC(=O)NC4=O)C5=O)CC3)CC2)C1` (stereo not shown) [P-102], the inhibition at 0.01 µM in assay [1] (setting [4]) was in the range of 50 to 80%. This molecule gave a half-inhibitory concentration (IC50) in assay [2] (CellTiter-Glo (Table 3)) of 14.9 nM.

Take `CNC(=O)N1CCc2c(c(N3CCCc4cc(-c5cnn(C)c5)c(C(F)F)cc43)nn2C2CCN(C(=O)CCCCCCn3c(=O)n(C4CCC(=O)NC4=O)c4ccccc43)CC2)C1` (stereo not shown) [P-106, 3-(7-(difluoromethyl)-6-(1-methyl-1H-pyrazol-4-yl)-3,4-dihydroquinolin-1(2H)-yl)-1-(1-(7-(3-(2,6-dioxopiperidin-3-yl)-2-oxo-2,3-dihydro-1H-benzo[d]imidazol-1-yl)heptanoyl)piperidin-4-yl)-N-methyl-1,4,6,7-tetrahydro-5H-pyrazolo[4,3-c]pyridine-5-carboxamide]: the inhibition at 0.01 µM in assay [1] is 50 to 80%. In addition, the IC50 in assay [2] (CellTiter-Glo (Table 3)) came to 24.2 nM.

On to `CNC(=O)N1CCc2c(c(N3CCCc4cc(-c5cnn(CC(=O)NCCCCCCCCCC(=O)NC(C(=O)N6C[C@H](O)C[C@H]6C(=O)NCc6ccc(-c7scnc7C)cc6)C(C)(C)C)c5)c(C(F)F)cc43)nn2C2CCOCC2)C1` (stereo in doubt) [P-049, 3-(7-(Difluoromethyl)-6-(1-(2-((10-(((S)-1-((2S,4R)-4-hydroxy-2-((4-(4-methylthiazol-5-yl)benzyl)carbamoyl)pyrrolidin-1-yl)-3,3-dimethyl-1-oxobutan-2-yl)amino)-10-oxodecyl)amino)-2-oxoethyl)-1H-pyrazol-4-yl)-3,4-dihydroquinolin-1(2H)-yl)-N-methyl-1-(tetrahydro-2H-pyran-4-yl)-1,4,6,7-tetrahydro-5H-pyrazolo[4,3-c]pyridine-5-carboxamide], for which the inhibition at 0.01 µM in assay [1] (setting [3]) was less than 20%. The molecule further came in with an IC50 in assay [2] (CellTiter-Glo (Table 2)) of 234 nM.

For the molecule `CNC(=O)N1CCc2c(c(N3CCCc4cc(-c5cnn(C)c5)c(C(F)F)cc43)nn2C2CCN(C(=O)CCCCC#Cc3cccc4c3C(=O)N(C3CCC(=O)NC3=O)C4=O)CC2)C1` (stereo not shown) [P-092, 3-(7-(Difluoromethyl)-6-(1-methyl-1H-pyrazol-4-yl)-3,4-dihydroquinolin-1(2H)-yl)-1-(1-(7-(2-(2,6-dioxopiperidin-3-yl)-1,3-dioxoisoindolin-4-yl)hept-6-ynoyl)piperidin-4-yl)-N-methyl-1,4,6,7-tetrahydro-5H-pyrazolo[4,3-c]pyridine-5-carboxamide], in assay [1] (setting [4]), the inhibition at 0.01 µM lay in the range of 20 to 50%. Besides, the IC50 in assay [2] (CellTiter-Glo (Table 3)) was 56.5 nM.

For `CNC(=O)N1CCc2c(c(N3CCCc4cc(-c5cnn(C)c5)c(C(F)F)cc43)nn2C2CCN(C(=O)COCC(=O)N[C@H](C(=O)N3C[C@H](O)C[C@H]3C(=O)NCc3ccc(-c4scnc4C)cc3)C(C)(C)C)CC2)C1` [P-064, 3-(7-(Difluoromethyl)-6-(1-methyl-1H-pyrazol-4-yl)-3,4-dihydroquinolin-1(2H)-yl)-1-(1-(2-(2-(((S)-1-((2S,4R)-4-hydroxy-2-((4-(4-methylthiazol-5-yl)benzyl)carbamoyl)pyrrolidin-1-yl)-3,3-dimethyl-1-oxobutan-2-yl)amino)-2-oxoethoxy)acetyl)piperidin-4-yl)-N-methyl-1,4,6,7-tetrahydro-5H-pyrazolo[4,3-c]pyridine-5-carboxamide], the inhibition at 0.01 µM in assay [1] (setting [4]) is less than 20%. In assay [2] (CellTiter-Glo (Table 3)), this molecule had a concentration for half-maximal inhibition (IC50) of 57.5 nM.

Regarding `CC(=O)N1CCc2c(c(N3CCCc4cc(-c5cnn(C)c5)c(C(F)F)cc43)nn2C2CCN(C(=O)CCCCNc3cccc4nc(C)n(C5CCC(=O)NC5=O)c(=O)c34)CC2)C1` (stereo not shown) [P-154, 3-(5-((5-(4-(5-Acetyl-3-(7-(difluoromethyl)-6-(1-methyl-1H-pyrazol-4-yl)-3,4-dihydroquinolin-1(2H)-yl)-4,5,6,7-tetrahydro-1H-pyrazolo[4,3-c]pyridin-1-yl)piperidin-1-yl)-5-oxopentyl)amino)-2-methyl-4-oxoquinazolin-3(4H)-yl)piperidine-2,6-dione], the inhibition at 0.01 µM in assay [1] (setting [4]) was in the range of 20 to 50%. In assay [2] (CellTiter-Glo (Table 3)), the IC50 was more than 1000 nM.

Values taken from patent US20230073777A1, “CYCLIC-AMP RESPONSE ELEMENT BINDING PROTEIN (CBP) AND/OR ADENOVIRAL E1A BINDING PROTEIN OF 300 KDA (P300) DEGRADATION COMPOUNDS AND METHODS OF USE” (CULLGEN (SHANGHAI), INC., priority 2019, published 2023).
